Numbers after ± are expanded uncertainties.
What was measured:
[1] = xn = mol fraction of the nth substance listed; conditions: 101 kPa, Liquid
[2] = wn = mass fraction of the nth substance listed; conditions: 101 kPa, Liquid

CN(CCO)CCO [N-methyldiethanolamine] + O
mass density [kg/m3]
Conditions	298.15 K	303.15 K	308.15 K	313.15 K	318.15 K	323.15 K	328.15 K	333.15 K	338.15 K
[1], x1 = 0.0128	1004.06 ± 0.98	1002.48 ± 0.97	1000.7 ± 0.95	998.731 ± 0.95	996.584 ± 0.97	994.273 ± 0.99	991.808 ± 1	989.191 ± 1	986.433 ± 1.1
[1], x1 = 0.0212	1008.41 ± 1	1006.7 ± 1	1004.8 ± 0.99	1002.72 ± 0.97	1000.48 ± 0.94	998.073 ± 0.96	995.518 ± 0.98	992.82 ± 1	989.984 ± 1
[1], x1 = 0.0498	1020.08 ± 1.1	1017.93 ± 1.1	1015.63 ± 1.1	1013.18 ± 1.1	1010.59 ± 1	1007.87 ± 1	1005.02 ± 0.98	1002.04 ± 0.95	998.939 ± 0.94
[1], x1 = 0.0645	1026.39 ± 1.2	1023.98 ± 1.2	1021.43 ± 1.1	1018.77 ± 1.1	1015.98 ± 1.1	1013.06 ± 1.1	1010.03 ± 1	1006.73 ± 1	1003.61 ± 0.97
[1], x1 = 0.0799	1030.85 ± 1.2	1028.25 ± 1.2	1025.53 ± 1.2	1022.69 ± 1.1	1019.74 ± 1.1	1016.68 ± 1.1	1013.51 ± 1.1	1010.24 ± 1	1006.85 ± 0.99
[1], x1 = 0.1332	1042.8 ± 1.3	1039.65 ± 1.3	1036.42 ± 1.3	1033.1 ± 1.2	1029.71 ± 1.2	1026.23 ± 1.2	1022.67 ± 1.1	1019.02 ± 1.1	1015.29 ± 1.1
[1], x1 = 0.1557	1045.44 ± 1.4	1042.17 ± 1.3	1038.83 ± 1.3	1035.41 ± 1.3	1031.92 ± 1.2	1028.34 ± 1.2	1024.69 ± 1.2	1020.96 ± 1.1	1017.15 ± 1.1
[1], x1 = 0.1944	1049.91 ± 1.4	1046.42 ± 1.4	1042.86 ± 1.3	1039.23 ± 1.3	1035.54 ± 1.2	1031.78 ± 1.2	1027.97 ± 1.2	1024.08 ± 1.1	1020.13 ± 1.1
[1], x1 = 0.2407	1050.84 ± 1.4	1048.11 ± 1.4	1044.45 ± 1.3	1040.73 ± 1.3	1036.95 ± 1.3	1033.11 ± 1.2	1029.25 ± 1.2	1025.29 ± 1.1	1021.29 ± 1.1
[1], x1 = 0.2725	1052.41 ± 1.4	1048.8 ± 1.4	1045.14 ± 1.3	1041.41 ± 1.3	1037.63 ± 1.3	1033.74 ± 1.2	1029.77 ± 1.2	1025.95 ± 1.1	1021.9 ± 1.1
[1], x1 = 0.366	1052.54 ± 1.4	1048.78 ± 1.3	1044.97 ± 1.3	1041.1 ± 1.3	1037.2 ± 1.2	1033.24 ± 1.2	1029.24 ± 1.2	1025.2 ± 1.1	1021.1 ± 1.1
[1], x1 = 0.4302	1050.97 ± 1.4	1047.2 ± 1.3	1043.38 ± 1.3	1039.51 ± 1.2	1035.6 ± 1.2	1031.66 ± 1.2	1027.68 ± 1.1	1023.66 ± 1.1	1019.6 ± 1.1
[1], x1 = 0.5642	1046.85 ± 1.3	1043.08 ± 1.3	1039.28 ± 1.2	1035.45 ± 1.2	1031.61 ± 1.1	1027.75 ± 1.1	1023.83 ± 1.1	1019.88 ± 1	1015.88 ± 1
[1], x1 = 0.6687	1041.44 ± 1.2	1037.68 ± 1.2	1033.89 ± 1.2	1030.08 ± 1.1	1026.25 ± 1.1	1022.4 ± 1	1018.52 ± 1	1014.62 ± 0.97	1010.7 ± 0.93
[1], x1 = 0.7531	1039.27 ± 1.2	1035.87 ± 1.2	1031.92 ± 1.1	1028.73 ± 1.1	1025.02 ± 1.1	1020.86 ± 1	1016.84 ± 0.98	1012.83 ± 0.94	1008.96 ± 0.91
[2], w1 = 0.3228	1027.27 ± 1.1	1024.82 ± 1.1	1022.16 ± 1.1	1019.44 ± 1.1	1016.54 ± 1	1013.63 ± 1	1010.47 ± 0.98	1007.39 ± 0.95	1003.91 ± 0.92
[2], w1 = 0.488	1041.37 ± 1.3	1038.16 ± 1.2	1034.94 ± 1.2	1031.74 ± 1.2	1028.35 ± 1.1	1024.83 ± 1.1	1021.38 ± 1.1	1017.75 ± 1	1014.17 ± 0.99
